# How the values were obtained:
# [1] = Evaluation of brain penetration property (Kp, Kp,uu) after single oral dose; assay type: in vivo; settings: BALB/cAJcl-nu/nu; for Kp at 1 h: mouse, ratio of compound concentrations in brain/plasma, mice, 1 hour after administration, Kp of 0.1 or more judged brain penetrable; for Kp uu at 1 h: ratio of unbound compound concentrations in brain/plasma, using mouse plasma and brain protein unbound ratios of Test Example 1, mice, 0.3 or more judged excellent
# Experimental: Compounds shown in Tables 1 to 4 were added to mouse plasma at a final concentration of 1 μmol/L. The resultant compound-added mouse plasma was added to the donor side of an equilibrium dialysis device (HTDialysis) in which an equilibrium dialysis membrane was set. An equal amount of PBS was added to the receiver side of the device, and after incubation in a 10% CO2 incubator for 6 hours, the compounds on the donor side and the receiver side were detected with the LC-MS/MS. The unbound ratio of each compound to plasma protein was calculated from the ratio of the compound peak area of the receiver side to that of the donor side.
# The unbound ratio of each compound to brain protein was calculated in the same manner as above except that: the compound was added to a mouse brain homogenate instead of the mouse plasma; and a dilution ratio was taken into consideration in the calculation of the unbound ratio. In this case, the mouse brain homogenate was obtained by adding a 3-fold amount of PBS to the mouse brain, and then homogenizing the mixture through use of an ultrasonic homogenizer.
# The compounds shown in Tables 1 to 4 were dissolved or suspended in 0.5% HPMC, 0.1N hydrochloric acid, and orally administered in a single dose to BALB/cAJcl-nu/nu mice (CLEA Japan, Inc.) untreated, or subcutaneously implanted with TT cells, or subcutaneously implanted with the BaF3/KIF5B-RET_RFP cell line. […] Thus, blood and brain samples were obtained. The obtained blood sample was centrifuged to obtain a plasma sample. A 3-fold amount of water was added to the obtained brain sample, and then the mixture was homogenized through use of an ultrasonic homogenizer to obtain a brain homogenate.
# Compound concentrations in the obtained plasma and in the brain homogenate were measured with the LC-MS/MS, and the compound concentration in the brain homogenate was multiplied by a factor of 4 to calculate a compound concentration in the brain. A Kp value was calculated from the ratio of the compound concentrations in the brain/plasma. Unbound compound concentrations in the plasma and in the brain were calculated from the plasma protein unbound ratio and brain protein unbound ratio of each compound determined in Test Example 1, and a Kp,uu value was calculated from the ratio of the unbound compound concentrations in the brain/plasma. A brain penetration property was evaluated on the basis of the calculated Kp value and Kp,uu value (Tables 1 to 4). Specifically, a compound showing a Kp value of 0.1 or more was judged to have a brain penetration property, and a compound showing a Kp,uu value of 0.3 or more was judged to have an excellent brain penetration property (Varadharajan, S., et al. (2015) J Pharm Sci 104, 1197-1206). In Table 4, “N/A” in the column “Kp,uu value” means that the value was unmeasured.
# [2] = test system: NIH/3T3_CCDC6-RET cells implanted in the brain; assay: Evaluation of drug efficacy in brain tumor implantation model; assay type: in vivo, nude mice (BALB/cAJcl-nu/nu); settings: oral 50 mg/kg/day, twice a day for 16 consecutive days from Day 5; NIH/3T3_CCDC6-RET brain implant, nude mice
# Experimental: Antitumor evaluation was performed in models with tumors implanted in the brain.
# The growth inhibitory effect was confirmed by using NIH/3T3 cells (NIH/3T3_CCDC6-RET cells) in which luciferase and CCDC6-RET fusion protein were forced to be expressed for gene transfer. Six-week-old male nude mice (BALB/cAJcl-nu/nu, CLEA Japan, Inc.) were fixed on a brain stereotaxic instrument, and 2.5×10^4 cells per mice were implanted at a site 0.5 mm anteriorly from the bregma, 2 to 2.2 mm to the right and 3.5 mm deep. The day of implantation was defined as Day 0, luciferin (150 mg/kg) was administered intraperitoneally on Day 4, and intensity of luminescence (photons/sec) was measured using an IVIS Imaging System (Lumina II, PerkinElmer).
# From the next day (Day 5), compounds were administered twice a day for 16 consecutive days. Each compound was suspended in 0.5% HPMC/0.1N hydrochloric acid and administered orally at 50 mg/kg/day. To confirm tumor growth, intensity of luminescence was measured at intervals of 3 or 4 days by the method described above.
# However, since a humane endpoint due to tumor growth was applied to the drug non-administration group (control group), statistical evaluation was performed by Dunnett's test using the measurement value on Day 14.
SMILES,Kp at 1 h [1],Kp uu at 1 h [1],inhibitory effect on growth of tumors implanted in the brain (intensity of luminescence) [2]
"COCc1ccc(NC(=O)c2c(C#Cc3cn(C)nc3C)n(C3(C)CC3)c3ncnc(N)c23)cc1 [Example 1, 4-amino-6-[2-(1,3-dimethyl-1H-pyrazol-4-yl)ethynyl]-N-[4-(methoxymethyl)phenyl]-7-(1-methylcyclopropyl)-7H-pyrrolo[2,3-d]pyrimidine-5-carboxamide]",0.425,0.425,
"COCc1ccc(NC(=O)c2c(C#CCN3CCOCC3)n(C3(C)CC3)c3ncnc(N)c23)cc1 [Example 2, 4-amino-N-[4-(methoxymethyl)phenyl]-7-(1-methylcyclopropyl)-6-(3-morpholinoprop-1-yn-1-yl)-7H-pyrrolo[2,3-d]pyrimidine-5-carboxamide]",1.71,1.8,inhibitory effect on the growth of the implanted tumors
"COCc1ccc(NC(=O)c2c(C#CC3CCN(C)CC3)n(C3(C)CC3)c3ncnc(N)c23)cc1 [Example 3, 4-amino-N-[4-(methoxymethyl)phenyl]-7-(1-methylcyclopropyl)-6-[(1-methylpiperidin-4-yl)ethynyl]-7H-pyrrolo[2,3-d]pyrimidine-5-carboxamide]",0.772,0.22,
"COCc1ccc(NC(=O)c2c(C#Cc3cnn(C)c3)n(C3(C)CC3)c3ncnc(N)c23)cc1 [Example 4, 4-amino-N-[4-(methoxymethyl)phenyl]-6-((1-methyl-1H-pyrazol-4-yl)ethynyl)-7-(1-methylcyclopropyl)-7H-pyrrolo[2,3-d]pyrimidine-5-carboxamide]",1.44,1.2,
"CC#Cc1c(C(=O)Nc2ccc(COC)cc2)c2c(N)ncnc2n1C1(C)CC1 [Example 5, 4-amino-N-[4-(methoxymethyl)phenyl]-7-(1-methylcyclopropyl)-6-(prop-1-yn-1-yl)-7H-pyrrolo[2,3-d]pyrimidine-5-carboxamide]",1.56,0.681,
"COCc1ccc(NC(=O)c2c(C#CCN(C)C)n(C3(C)CC3)c3ncnc(N)c23)cc1 [Example 6, 4-amino-6-[3-(dimethylamino)prop-1-yn-1-yl]-N-[4-(methoxymethyl)phenyl]-7-(1-methylcyclopropyl)-7H-pyrrolo[2,3-d]pyrimidine-5-carboxamide]",0.969,0.922,
"COCc1ccc(NC(=O)c2c(OC[C@H]3CCCO3)n(C3(C)CC3)c3ncnc(N)c23)cc1 [Example 7, (R)-4-amino-N-[4-(methoxymethyl)phenyl]-7-(1-methylcyclopropyl)-6-((tetrahydrofuran-2-yl)methoxy)-7H-pyrrolo[2,3-d]pyrimidine-5-carboxamide]",1.63,0.608,
"COCc1ccc(NC(=O)c2cn(C3(C)CC3)c3ncnc(N)c23)cc1 [Example 8, 4-amino-N-[4-(methoxymethyl)phenyl]-7-(1-methylcyclopropyl)-7H-pyrrolo[2,3-d]pyrimidine-5-carboxamide]",0.175,0.1,
"CCOc1c(C(=O)Nc2ccc(COC)cc2)c2c(N)ncnc2n1C1(C)CC1 [Example 9, 4-amino-6-ethoxy-N-[4-(methoxymethyl)phenyl]-7-(1-methylcyclopropyl)-7H-pyrrolo[2,3-d]pyrimidine-5-carboxamide]",2.12,0.914,
"COCc1ccc(NC(=O)c2c(C#Cc3cncn3C)n(C3(C)CC3)c3ncnc(N)c23)cc1 [Example 10, 4-amino-N-(4-(methoxymethyl)phenyl)-6-((1-methyl-1H-imidazol-5-yl)ethynyl)-7-(1-methylcyclopropyl)-7H-pyrrolo[2,3-d]pyrimidine-5-carboxamide]",0.143,0.056,
"COCc1ccc(NC(=O)c2c(C#CCN3CCCCC3)n(C3(C)CC3)c3ncnc(N)c23)cc1 [Example 11, 4-amino-N-[4-(methoxymethyl)phenyl]-7-(1-methylcyclopropyl)-6-(3-(piperidin-1-yl)prop-1-yn-1-yl)-7H-pyrrolo[2,3-d]pyrimidine-5-carboxamide]",1.36,,
"COCc1ccc(NC(=O)c2c(C#CCN3CCCC3)n(C3(C)CC3)c3ncnc(N)c23)cc1 [Example 12, 4-amino-N-[4-(methoxymethyl)phenyl]-7-(1-methylcyclopropyl)-6-(3-(pyrrolidin-1-yl)prop-1-yn-1-yl)-7H-pyrrolo[2,3-d]pyrimidine-5-carboxamide]",1.02,1.45,
"COCc1ccc(NC(=O)c2c(C#CC3CCOCC3)n(C3(C)CC3)c3ncnc(N)c23)cc1 [Example 13, 4-amino-N-[4-(methoxymethyl)phenyl]-7-(1-methylcyclopropyl)-6-((tetrahydro-2H-pyran-4-yl)ethynyl)-7H-pyrrolo[2,3-d]pyrimidine-5-carboxamide]",2.08,0.891,
"COCc1ccc(NC(=O)c2c(C#CCC(C)(C)O)n(C3(C)CC3)c3ncnc(N)c23)cc1 [Example 14, 4-amino-6-(4-hydroxy-4-methylpent-1-yn-1-yl)-N-[4-(methoxymethyl)phenyl]-7-(1-methylcyclopropyl)-7H-pyrrolo[2,3-d]pyrimidine-5-carboxamide]",0.352,0.242,
"COCc1ccc(NC(=O)c2c(C#CCC3CCOCC3)n(C3(C)CC3)c3ncnc(N)c23)cc1 [Example 15, 4-amino-N-[4-(methoxymethyl)phenyl]-7-(1-methylcyclopropyl)-6-[3-(tetrahydro-2H-pyran-4-yl)prop-1-yn-1-yl]-7H-pyrrolo[2,3-d]pyrimidine-5-carboxamide]",0.74,0.37,
"COCc1ccc(NC(=O)c2c(C#Cc3cccnc3)n(C3(C)CC3)c3ncnc(N)c23)cc1 [Example 16, 4-amino-N-[4-(methoxymethyl)phenyl]-7-(1-methylcyclopropyl)-6-(pyridin-3-ylethynyl)-7H-pyrrolo[2,3-d]pyrimidine-5-carboxamide]",1.09,0.653,
"COCc1ccc(NC(=O)c2c(C#Cc3ccc(N)nc3)n(C3(C)CC3)c3ncnc(N)c23)cc1 [Example 17, 4-amino-6-[(6-aminopyridin-3-yl)ethynyl]-N-[4-(methoxymethyl)phenyl]-7-(1-methylcyclopropyl)-7H-pyrrolo[2,3-d]pyrimidine-5-carboxamide]",0.129,0.052,
"COCc1ccc(NC(=O)c2c(C#CCN3CCSCC3)n(C3(C)CC3)c3ncnc(N)c23)cc1 [Example 18, 4-amino-N-[4-(methoxymethyl)phenyl]-7-(1-methylcyclopropyl)-6-(3-thiomorpholinoprop-1-yn-1-yl)-7H-pyrrolo[2,3-d]pyrimidine-5-carboxamide]",0.685,0.443,
"Cc1cc(NC(=O)c2cn(C(C)(C)C)c3ncnc(N)c23)n[nH]1 [compound 1, reference compound]",0.056,,
"Cc1cc(NC(=O)c2cn(C3(C)CC3)c3ncnc(N)c23)n[nH]1 [compound 2, reference compound]",0.022,0.005,
"Cc1cc(NC(=O)c2c(C#Cc3cnn(C)c3)n(C3(C)CC3)c3ncnc(N)c23)[nH]n1 [compound 3, reference compound]",0.076,,

# — patent publication US20240025910A1, “BRAIN-MIGRATING TUMOR THERAPEUTIC AGENT CONTAINING FUSED PYRIMIDINE COMPOUND AS ACTIVE INGREDIENT” (TAIHO PHARMACEUTICAL CO., LTD., priority 2020, published 2024)
